Results on one compound are retold here after patent US10653676B2 (Dana-Farber Cancer Institute, Inc., priority 2010, dated 2020).

The target in experiment [1] is T1, USP5 (Homo sapiens, UniProt P45974).
T1 construct: purchased Boston Biochem
T1 sequence (P45974 1-858): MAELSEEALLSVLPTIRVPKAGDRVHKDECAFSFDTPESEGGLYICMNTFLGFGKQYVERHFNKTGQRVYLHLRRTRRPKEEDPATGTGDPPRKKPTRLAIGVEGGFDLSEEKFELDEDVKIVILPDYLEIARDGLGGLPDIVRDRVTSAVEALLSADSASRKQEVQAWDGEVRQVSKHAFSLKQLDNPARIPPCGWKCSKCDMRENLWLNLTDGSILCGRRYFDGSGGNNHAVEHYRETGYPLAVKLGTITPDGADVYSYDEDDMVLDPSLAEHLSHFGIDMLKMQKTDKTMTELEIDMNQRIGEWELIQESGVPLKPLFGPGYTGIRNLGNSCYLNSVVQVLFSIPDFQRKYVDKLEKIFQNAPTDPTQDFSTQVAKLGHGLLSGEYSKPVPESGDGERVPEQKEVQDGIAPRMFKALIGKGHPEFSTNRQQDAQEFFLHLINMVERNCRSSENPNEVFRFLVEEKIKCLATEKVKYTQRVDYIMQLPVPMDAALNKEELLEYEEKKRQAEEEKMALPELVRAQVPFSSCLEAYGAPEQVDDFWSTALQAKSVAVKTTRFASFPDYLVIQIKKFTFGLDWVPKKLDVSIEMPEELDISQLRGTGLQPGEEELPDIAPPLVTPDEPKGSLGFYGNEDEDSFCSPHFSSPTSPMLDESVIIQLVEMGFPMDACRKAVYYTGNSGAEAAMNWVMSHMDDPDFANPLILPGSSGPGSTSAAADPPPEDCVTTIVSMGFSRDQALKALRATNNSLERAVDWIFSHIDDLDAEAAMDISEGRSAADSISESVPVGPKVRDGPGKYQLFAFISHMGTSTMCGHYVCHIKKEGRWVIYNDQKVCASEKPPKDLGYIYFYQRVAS
The experiment in a line: ubiquitin-AMC assay with USP5. Format: biochemical. The method, then: (§1) FIG. 6 is a composite figure showing that C527 is a pan-deubiqutinating enzyme inhibitor […]. Ubiquitin-AMC assay was performed using purified (FIG. 6A) USP12/UAF1/WDR20 (FIG. 6B) USP5 and (FIG. 6C) UCH-L1. Enzymes were incubated with DMSO or C527 at indicated concentrations for 3 h, followed by the addition of Ub-AMC at 0.5 μM final concentration. The fluorescence at […] was measured to indicate the enzymatic activity. FIG. 6D is a summary showing the IC50 of C527 against the indicated enzymes.
(§2) The in vitro enzymatic assays were performed using purified proteins from Sf9 cells as described previously (Cohn et al.). The assays using ubiquitin-AMC (Ub-7-amido-4-methylcoumarin; Boston Biochem) as substrate was carried out in a reaction buffer containing 20 mM HEPES-KOH (pH 7.8), 20 mM NaCl, 0.1 mg/ml ovalbumin, 0.5 mM EDTA and 10 mM dithiothreitol. The fluorescence was measured by FluoStar Galaxy Fluorometer (BMG Labtech). For the Ub-vinylsulfone (VS) assay, the proteins were incubated with Ub-VS at 0.5 μM final concentration for 1 h at 30° C., followed by the immunoblotting analysis.
(§3) To examine the specificity of C527 in USP1/UAF1 inhibition, its ability to inhibit other DUB enzymes in vitro was examined. […] Moreover, the active complex of USP12 contains an additional WD40 subunit (WDR20). […]

The test system of experiment [2] is U2OS-DRGFP cells. The experiment is described as follows: DR-GFP reporter gene conversion assay for homologous recombination repair. Format: cell-based. To be noted: 24 h exposure; inhibition in the 0 to 5 μM range; FIG. 8A. The protocol: FIG. 8 is a composite figure showing that C527 inhibits homologous recombination repair. […] U2OS-DRGFP cells were transfected with I-SCE-I and then exposed to C527 at the indicated concentration for 24 h. Cells were then subjected to flow cytometry analysis. The percentage of GFP positive cells was normalized by solvent vehicle treated group. […] HeLa cells, integrated with the NHEJ reporter, were treated with C527 and analyzed as described in (FIG. 8A). […] HeLa cells were pre-treated with DMSO or C527 at the indicated concentration and then exposed to camptothecin (CPT) for 1 hr. RAD51 foci were detected using immunofluorescence.
HR repair activity was analyzed using DR-GFP reporter as previously described (Pierce A J et al, Genes Dev, 13: 2633). U2OS-DRGFP cells carrying a chromosomally integrated single copy of HR repair substrate were used to test the effect of C527 on HR. DSB-induced HR results in restoration and expression of GFP and was quantified by FACS. Briefly, 24 h after induction of chromosomal double-strand breaks through the expression of I-SceI, cells were treated with C527 for 24 h. Cells were subjected to FACS analysis and the percentage of GFP-positive cells was quantitated relative to the total viable cell number. For each analysis, 100,000 cells were processed. […]

The target of experiment [3] is T2, USP12/UAF1/WDR20 complex (Homo sapiens, UniProt O75317).
T2 construct: made in house; host or cells: Sf9
The experiment in a line: ubiquitin-AMC assay with USP12/UAF1/WDR20. Format: biochemical. The protocol: as §1, §2, §3

T2 sequence (O75317 whole entry, species assumed): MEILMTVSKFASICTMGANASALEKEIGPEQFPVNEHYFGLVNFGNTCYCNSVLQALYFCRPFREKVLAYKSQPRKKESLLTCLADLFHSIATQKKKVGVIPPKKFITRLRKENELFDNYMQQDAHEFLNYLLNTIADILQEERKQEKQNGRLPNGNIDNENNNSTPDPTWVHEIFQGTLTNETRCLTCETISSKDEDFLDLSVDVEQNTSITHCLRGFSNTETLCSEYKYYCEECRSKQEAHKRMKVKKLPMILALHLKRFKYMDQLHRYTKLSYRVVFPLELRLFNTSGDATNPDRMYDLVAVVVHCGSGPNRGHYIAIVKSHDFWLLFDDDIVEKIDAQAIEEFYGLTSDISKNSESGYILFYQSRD
T2 sequence (Q8TAF3 whole entry partner, species assumed): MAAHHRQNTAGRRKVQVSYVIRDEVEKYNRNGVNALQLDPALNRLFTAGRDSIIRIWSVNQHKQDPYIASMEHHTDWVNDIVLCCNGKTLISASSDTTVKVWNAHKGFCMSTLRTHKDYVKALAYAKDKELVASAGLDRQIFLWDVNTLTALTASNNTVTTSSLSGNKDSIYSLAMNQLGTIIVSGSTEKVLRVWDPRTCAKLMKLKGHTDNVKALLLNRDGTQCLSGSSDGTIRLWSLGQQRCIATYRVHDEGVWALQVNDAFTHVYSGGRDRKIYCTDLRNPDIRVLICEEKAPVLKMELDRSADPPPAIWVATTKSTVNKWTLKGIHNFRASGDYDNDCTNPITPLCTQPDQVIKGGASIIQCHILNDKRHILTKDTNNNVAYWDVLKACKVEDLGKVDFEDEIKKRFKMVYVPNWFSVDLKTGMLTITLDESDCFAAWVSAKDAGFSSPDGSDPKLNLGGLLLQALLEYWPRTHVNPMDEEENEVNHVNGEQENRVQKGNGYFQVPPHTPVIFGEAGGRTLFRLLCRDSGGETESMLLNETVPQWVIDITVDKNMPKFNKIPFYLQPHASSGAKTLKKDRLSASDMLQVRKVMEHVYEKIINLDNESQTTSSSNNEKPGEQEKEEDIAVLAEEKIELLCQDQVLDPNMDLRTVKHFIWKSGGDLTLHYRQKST
T2 sequence (Q8TBZ3 whole entry partner, species assumed): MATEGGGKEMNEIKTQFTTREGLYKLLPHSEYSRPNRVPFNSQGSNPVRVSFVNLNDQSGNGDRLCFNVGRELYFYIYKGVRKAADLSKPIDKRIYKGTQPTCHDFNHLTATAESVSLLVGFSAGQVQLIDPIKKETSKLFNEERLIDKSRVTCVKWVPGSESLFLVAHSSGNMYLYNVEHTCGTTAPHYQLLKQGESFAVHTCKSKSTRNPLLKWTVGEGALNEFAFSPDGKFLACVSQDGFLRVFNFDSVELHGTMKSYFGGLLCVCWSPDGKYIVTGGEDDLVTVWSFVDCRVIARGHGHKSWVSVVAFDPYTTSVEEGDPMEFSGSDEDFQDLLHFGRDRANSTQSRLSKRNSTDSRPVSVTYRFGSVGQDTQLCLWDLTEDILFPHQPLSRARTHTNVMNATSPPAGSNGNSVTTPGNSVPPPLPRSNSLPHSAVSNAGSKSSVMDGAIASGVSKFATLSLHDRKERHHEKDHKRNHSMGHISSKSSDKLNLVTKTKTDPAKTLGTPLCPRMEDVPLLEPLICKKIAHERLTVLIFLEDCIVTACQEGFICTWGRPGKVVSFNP

`O=C1c2ccccc2C(=O)c2oc(-c3ccc(F)cc3)nc21` [Formula IV (527)]: the “IC50 compared with USP1/UAF1” value in experiment [1] (FIG. 6D) and in experiment [3] (FIG. 6D) was “slightly higher” each time. In addition, in experiment [1] (in vitro, FIG. 6B), the “DUB activity of the USP5 enzyme” value was “inhibited”. For the same compound, the “gene conversion (cellular GFP), HR activity” value in experiment [2] is listed as “dose-dependent decreased in gene conversion”. For the same compound, the “DUB activity of the USP12/UAF1/WDR20 complex” value in experiment [3] (in vitro, FIG. 6A) is “inhibited”.
